The subject of experiment [1] is vasospasm, central artery and vein of the ear. The experiment in a line: Pilot study of 0.4% PGE1 topical composition on adrenaline-induced ear vasospasm (Example 5, FIG. 1-2). It is filed as in vivo, New Zealand rabbit. Particulars: 1 mg of PGE1 dissolved in 75% aqueous ethanol on skin of right ear. From the text:
The objects of these pilot studies were designed to explore the efficacy of a specially formulated 0.4 wt % PGE1 topical composition for treating vasospasm and skin disorders that result from insufficient local blood circulation. Twenty four adult New Zealand rabbit, 3-4 kg, were divided into three groups: 12 rabbits were assigned into a Test Study Group; 6 rabbits were assigned into a PGE1 Control Group and 6 rabbits were assigned into an Alcohol Control Group. One rabbit of each Group was selected to enter the study at the same time for each of the first six studies.
The rabbit's right ear was selected to be the test application site, while its left ear was observed as a control. An adrenaline solution (0.2 ml of a 0.1% (1:1000) solution) was injected into the area adjacent to both the central artery and vein near the bottom of both ears. Classic vasospasm appeared five minutes later on both ears. One of three test substances, 125 mg of a 0.4% PGE1 topical composition containing 1.8% DDAIP HCl was applied to a 2 cm×2 cm area of skin adjacent to the central artery and vein of the right ear.
Vasospasm was induced in the same way in both ears of the rabbits of the PGE1 Control Group and the Alcohol Control Group. Similarly, 1 mg of PGE1 dissolved in 75% aqueous ethanol, or the 75% aqueous ethanol vehicle alone were applied to the right ears of the rabbits of the PGE1 Control Group and the Alcohol Control Group respectively. The time course of changes in blood vessel diameter was observed.

Experiment [2] deals with vasospasm induced by adrenaline hydrochloride, femoral artery. The experiment is described as follows: Ultrasonography of blood flow volume in surgically exposed femoral artery with adrenaline-induced vasospasm (Example 4). It is filed as in vivo, New Zealand Rabbits. The note with it: four drops of papaverine (30 mg/ml) on exposed femoral artery; for The Average Time Required To Return To The Initial Blood Flow Volume: 120 minute test. The procedure: Rabbits were obtained and anesthetized as described in Example 2, above. A total of 70 rabbits were randomly assigned into 7 groups with 10 rabbits per group. Blood flow velocity and vascular cross section area were measured and analyzed using a Toshiba Multifunction Ultrasonography 6000 system. A portion of femoral artery about 2 cm long was exposed through a 3 cm incision. […] The entire test was performed under a constant room temperature of 20 degrees Celsius. About ten minutes after the application of adrenaline hydrochloride, the operating field was irrigated with sterile saline topically and dried with sterile pad. […] The incision was closed after the application of the topical composition. The ultrasonic probe was put at a fixed location 1 cm from the incision. […] In general, blood flow volume=blood flow velocity×vascular cross section The data were expressed as average±SD; t-test was used for statistical analysis. The averaged data are reported in Table 9, below, as instantaneous blood flow volume±standard deviation (SD), N=10, and shown graphically in FIG. 6.

`CCCCC[C@H](O)/C=C/[C@H]1[C@H](O)CC(=O)[C@@H]1CCCCCCC(=O)O` [PGE1 dissolved in 75% aqueous ethanol, Prostaglandin E1]: in experiment [1], the “changes of the vascular bed of the right ear” value is “No significant remaining changes were observed”, the “duration of the dilation effect” value stood at 60 min, the “time after application at which the vasospasm was alleviated slightly” value came to 20 min and the “time until vessels of the right ear were dilated” value turned out to be 30 min.
Take `COc1ccc(Cc2nccc3cc(OC)c(OC)cc23)cc1OC` [Papaverine, papaverine]: the entries for the “The accumulated blood flow volume from 10 minutes after vasospasm to 120 minutes after drug administration” value in experiment [2] and in experiment [2] (listed as papaverine) were 2341 ± 94.87 cm^3 and “a slightly greater effect that was comparable to that produced by composition comprising 80 μg PGE1”, respectively. The “instantaneous blood flow volume” value in experiment [2] (5 min after Drug) is on record as 319 ± 13.27 mm^3/s; in experiment [2] (5 min after Vasospasm (before drug)) it was 107 ± 4.11 mm^3/s; in experiment [2] (10 min after Drug), 358 ± 13.95 mm^3/s; in experiment [2] (10 min after Vasospasm (before drug)), 86 ± 4.76 mm^3/s; in experiment [2] (15 min after Drug), 402 ± 18.44 mm^3/s; in experiment [2] (30 min after Drug), 435 ± 17.76 mm^3/s. Besides, the “instantaneous blood flow volume” value in experiment [2] (60 min after Drug) is recorded as 296 ± 12.58 mm^3/s; in experiment [2] (90 min after Drug), 287 ± 11.96 mm^3/s; in experiment [2] (120 min after Drug), 274 ± 10.88 mm^3/s; in experiment [2] (Normal Condition (before drug)), 325 ± 9.80 mm^3/s. The “The Average Time Required To Return To The Initial Blood Flow Volume” value is 5 min in experiment [2] and “produced recovery of blood flow volume” in experiment [2] (listed as papaverine).

For the origin of these results see patent publication US8632813B2, “Prostaglandin compositions and methods for the treatment of vasospasm” (Nexmed (Holdings), Inc., priority 2003, dated 2014).
